Peptide text beside a SMILES is read from it. * marks the point of attachment. C20 diacid = O=C(O)CCCCCCCCCCCCCCCCCCC(=O)*; AEEA = NCCOCCOCC(=O)O; Inp = O=C(O)C1CCNCC1
Experiments:
[1] = Heat accelerated stability assay of polypeptide solutions (40° C., pH about 7.4), reversed phase chromatography; type: physicochemical; details: for Purity change on 7 d: Day 7, purity on 7 d − purity on 0 d
Outline: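 Polypeptide derivative lyophilisate (1 mg/mL) with sodium dihydrogen phosphate (1.42 mg/mL) in water, pH about 7.4, sterile-filtered, vialed and held at 40° C; sampled on days 7 and 26. After centrifugation, concentration and purity (target/total peak area) by C18 RP-HPLC, TFA/ACN gradient, 280 and 214 nm.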

[2] = Efficacy assay in SD rats, dose-dependent study, single subcutaneous dose; type: in vivo; details: Table 9
Excerpt: […] Food intake was the amount of food consumed by each of the animals per day.

amylin receptor (hAMY3R) = target: T1, amylin receptor (hAMY3R) (Homo sapiens, UniProt O60896+P30988); assay: Amylin receptor agonism testing, CRE-luciferase assay in stably transfected CHO-K1/Ga15/AMY3 cells; type: cell-based
T1 construct: host or cells: CHO-K1/Ga15/AMY3 cells, further stably transfected with a CRE-luciferase plasmid
T1 sequence (P30988 25-474): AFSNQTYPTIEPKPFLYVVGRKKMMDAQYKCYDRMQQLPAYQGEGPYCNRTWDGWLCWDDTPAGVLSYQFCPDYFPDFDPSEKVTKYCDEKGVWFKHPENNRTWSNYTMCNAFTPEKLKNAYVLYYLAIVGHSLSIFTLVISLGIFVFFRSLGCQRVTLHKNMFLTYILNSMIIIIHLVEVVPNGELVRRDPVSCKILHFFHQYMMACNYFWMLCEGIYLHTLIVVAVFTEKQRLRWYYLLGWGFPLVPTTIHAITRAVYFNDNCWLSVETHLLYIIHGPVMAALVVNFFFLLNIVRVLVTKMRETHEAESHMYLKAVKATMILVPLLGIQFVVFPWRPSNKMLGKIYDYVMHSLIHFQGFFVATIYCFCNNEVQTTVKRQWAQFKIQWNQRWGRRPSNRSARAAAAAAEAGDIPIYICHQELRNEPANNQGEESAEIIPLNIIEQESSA
T1 sequence (O60896 24-148): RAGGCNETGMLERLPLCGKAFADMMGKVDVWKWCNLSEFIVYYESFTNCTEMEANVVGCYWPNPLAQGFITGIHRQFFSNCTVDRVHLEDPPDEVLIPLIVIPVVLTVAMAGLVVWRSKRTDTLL

[3] = target: T2, calcitonin receptor (hCTR) (Homo sapiens, UniProt P30988); assay: Calcitonin receptor agonism, CRE-luciferase assay in stably transfected CHO-K1/CALCR/Ga15 cells; type: cell-based
T2 construct: host or cells: CHO-K1/CALCR/Ga15 cells, further stably transfected with a CRE-luciferase plasmid
T2 sequence (P30988 25-474): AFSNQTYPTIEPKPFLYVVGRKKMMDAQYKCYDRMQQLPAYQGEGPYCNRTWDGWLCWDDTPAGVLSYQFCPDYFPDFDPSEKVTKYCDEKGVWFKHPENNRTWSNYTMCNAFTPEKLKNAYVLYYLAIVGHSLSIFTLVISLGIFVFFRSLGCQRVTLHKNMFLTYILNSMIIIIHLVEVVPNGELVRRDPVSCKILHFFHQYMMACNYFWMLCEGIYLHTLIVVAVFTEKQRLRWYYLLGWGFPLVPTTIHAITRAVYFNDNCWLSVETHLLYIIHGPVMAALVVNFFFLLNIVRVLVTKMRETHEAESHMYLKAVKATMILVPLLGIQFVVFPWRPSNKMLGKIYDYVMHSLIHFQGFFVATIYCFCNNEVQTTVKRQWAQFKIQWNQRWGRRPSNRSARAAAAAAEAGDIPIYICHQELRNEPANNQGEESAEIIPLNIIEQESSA
Description: Using the standard protocol, CHO-K1/CALCR/Ga15 cells (purchased from GenScript, with the calcitonin receptor constructed already) were transfected with a plasmid containing a luciferase expression cassette driven by multiple copies of cAMP response elements (CREs). The cells were cultured in an F12 medium containing 200 ug/mL Zeocin, 2 ug/mL puromycin, and 100 ug/mL hygromycin to afford a stably transfected calcitonin receptor/CRE-luc cell line.
To each well of a white 96-well plate was added 50 μL of the tested sample solution at a respective concentration.
The stably transfected calcitonin receptor/CRE-luc CHO cells were resuspended in the growth medium at a certain density, and 50 μL of the cell suspension was added at a density of about 20,000 cells per well to the white 96-well plate containing the tested sample solution. After incubation of 24 hours at 37° C. and 5% CO2, 100 μL of a Luciferase substrate was added to each well, incubated for 3 minutes, and finally was tested for luminescence on SpectraMax L (Molecular Devices) with the software SoftMax Pro 7.0.3 GxP. A standard curve was plotted using the fluorescent intensities for calculation of EC50.

[4] = Animal study: weight change and accumulated food intake in SD rats after subcutaneous dosing; type: in vivo, SD (Sprague Dawley) rats; details: 10 nmol/kg subcutaneous
Excerpt: SD (Sprague Dawley) rats weighing 200-250 g were used for this study. The rats were received at least 10-14 days before the study began such that they could accommodate to the experimental environment. After arrival, they were exposed to a reversed light/dark cycle (i.e., lights switched off in daytime and on in nighttime) for two weeks and were individually housed for the first week so as to ensure high data accuracy and test sensitivity. Throughout the acclimation and experiment period, the rats had free access to food and water. 5-8 rats were assigned to each testing group for the derivatives and were subcutaneously administered the derivatives at a dose of 10 nmol/kg or a vehicle (20 mM phosphate buffer, PB, pH 7.0), and the dosing timepoint was recorded for each group. After dosing, the rats were put back into cages where they were housed and could have access to food and water. Food consumption and weight change of the rats were recorded online or manually every 24 hours. Percent of weight change=(BWTn−BWT0)/BWT0*100%, wherein BW represented the value of body weight, and T0 and Tn represented the time point of dosing and n hours post dose respectively. Dots in the figures were represented utilizing mean±standard error of the mean (SEM).

[5] = reversed phase chromatography 214 nm, 40° C.

SMILES | purity decrease ([1]; Day 7 of the accelerated testing) | appearance (clarity) of the solution ([1]; Day 26 of the heat accelerated assay) | Purity change on 7 d [1, 5] | 24 h food intake ([2]; 30 nmol/kg single s.c. dose) | 24 h weight change ([2]; 30 nmol/kg single s.c. dose) | 24 h food intake ([2]; 100 nmol/kg single s.c. dose) | 24 h weight change ([2]; 100 nmol/kg single s.c. dose) | EC50 (amylin receptor (hAMY3R); incubation of 24 hours, Table 3, read-out: EC50, activity against the amylin receptor in cells) | Fold change in activity against hAMY3R (amylin receptor (hAMY3R); relative to D1 as benchmark) | EC50 ([3]; Table 5 integrated analysis, read-out: hCTR EC50) | Fold change in activity against hCTR ([3]; relative to D1 as benchmark) | Concentration change on 26 d ([1]; 40° C., pH about 7.4, 1 mg/mL, Day 26) | Purity change on 26 d ([1]; reversed phase chromatography 214 nm, 40° C., Day 26, purity on 26 d − purity on 0 d) | effect on body weight of SD rats ([4]; FIGS. 1 and 3) | effect on accumulated food intake of SD rats ([4]; FIGS. 2 and 4)
CC[C@H](C)[C@H](NC(=O)[C@@H]1CCCN1C(=O)CNC(=O)[C@H](Cc1ccccc1)NC(=O)[C@H](CC(N)=O)NC(=O)[C@H](CC(N)=O)NC(=O)[C@H](CO)NC(=O)[C@H](CO)NC(=O)[C@H](Cc1c[nH]cn1)NC(=O)[C@H](CCCNC(=N)N)NC(=O)[C@H](CC(C)C)NC(=O)[C@H](Cc1ccccc1)NC(=O)[C@H](CCC(=O)O)NC(=O)[C@H](C)NC(=O)[C@H](CC(C)C)NC(=O)[C@H](CCCNC(=N)N)NC(=O)[C@H](CCC(N)=O)NC(=O)[C@@H](NC(=O)[C@H](C)NC(=O)[C@@H]1CSSC[C@H](NC(=O)[C@H](CCCCN)NC(=O)CC[C@H](NC(=O)CCCCCCCCCCCCCCCCCCC(=O)O)C(=O)O)C(=O)N[C@@H](CC(N)=O)C(=O)N[C@@H]([C@@H](C)O)C(=O)N[C@@H](C)C(=O)N[C@@H]([C@@H](C)O)C(=O)N1)[C@@H](C)O)C(=O)N[C@@H](CC(C)C)C(=O)N1CCC[C@H]1C(=O)N1CCC[C@H]1C(=O)N[C@H](C(=O)N[C@@H](CC(N)=O)C(=O)N[C@H](C(=O)NCC(=O)N[C@@H](CO)C(=O)N[C@@H](CC(N)=O)C(=O)N[C@H](C(=O)N1CCC[C@H]1C(N)=O)[C@@H](C)O)C(C)C)[C@@H](C)O [D1, Cagrilintide] | 12.73% | foreign matters were readily observable | −12.73% | 5.250 g | −6.416% | 2.100 g | −9.103% |  |  |  |  |  |  |  | 
CC(C)C[C@H](NC(=O)[C@H](CCCNC(=N)N)NC(=O)CNC(=O)[C@H](CC(C)C)NC(=O)[C@@H](NC(=O)[C@H](C)NC(=O)[C@@H](NC(=O)[C@H](CO)NC(=O)[C@H](CC(C)C)NC(=O)[C@H](CCC(N)=O)NC(=O)[C@H](CO)NC(=O)[C@H](C)NC(=O)COCCOCCNC(=O)COCCOCCNC(=O)C1CCN(C(=O)CCCCCCCCCCCCCCCCCCC(=O)O)CC1)[C@@H](C)O)C(C)C)C(=O)N[C@@H](CO)C(=O)N[C@@H](CC(=O)O)C(=O)N[C@@H](CCC(=O)O)C(=O)N[C@@H](CC(C)C)C(=O)N[C@@H](Cc1c[nH]cn1)C(=O)N[C@@H](CCCNC(=N)N)C(=O)N[C@@H](CC(C)C)C(=O)N[C@@H](CCC(N)=O)C(=O)N[C@@H](CC(=O)O)C(=O)N[C@@H](Cc1ccc(O)cc1)C(=O)N1CCC[C@H]1C(=O)N[C@@H](CCCNC(=N)N)C(=O)N[C@H](C(=O)N[C@@H](CC(=O)O)C(=O)N[C@H](C(=O)NCC(=O)N[C@@H](CO)C(=O)NCC(=O)N[C@@H](CO)C(=O)N1CCC[C@H]1C(N)=O)C(C)C)[C@@H](C)O [M29] ({C20 diacid-Inp-AEEA-AEEA}-ASQLSTAVLGRLSDELHRLQDYPRTDVGSGSP-NH2) |  |  | No change |  |  |  |  | 6 pM | 6.000 | 0.156 nM | 0.551 | No change (concentration change of less than 1% (denoted as “no change”)) | −1.2% | apparently further reduced | apparently further reduced

— US20260265305A1, “POLYPEPTIDE DERIVATIVE FOR ORAL DELIVERY” (Hangzhou Sciwind Biosciences Co., Ltd., priority 2023, published 2026)
